{
  "source": "patent US12458654B2",
  "about": "“Methods of conditioning patients for T cell therapy” (Kite Pharma Inc., priority 2015, dated 2025)",
  "key": {"[1]": {"system": "serum levels of cytokine analytes", "experimental": "T cell products were generated by transduction of autologous lymphocytes with a g-murine retrovirus carrying an anti-CD19 CAR construct gene, followed by expansion to achieve desired cell dose. Anti-CD19 CAR+ T cell product characteristics were evaluated at time of harvest, or after co-culture with CD19+ cells, by flow cytometry and multiplex cytokine analysis of co-culture supernatants. CAR+ T cell co-culture for product characterization was performed with K562-CD19 cells or K562-NGFR control cells, at an effector to target ratio of 1:1. Standard incubation time was 18 hours.\nCytokine and chemokine levels were measured using EMDmillipore Luminex® xMAP® multiplex assays. Data acquisition and analysis were performed using a Luminex 200™ instrument and xPONENT® 3.1 data analysis software. For IL-7, a human IL-7 Quantikine HS ELISA Kit (HS750) was used with samples run neat per manufacturer's guidelines. The frequency of CAR T cells in circulation was measured by a quantitative PCR analysis. Patients were administered a preconditioning regimen comprising of 300 mg/m^2 cyclophosphamide on days −5 and −4, and 30 mg/m^2 fludarabine on days −5, −4, and −3. Patient sera was collected prior to administration of cyclophosphamide and fludarabine between days −12 and −5 (“pre”), immediately before administration of CAR+ T cells on day 0 (“post”) and on select days following CAR+ T cell administration up to day 18. The serum concentrations of GF-CSF, IL-2, MCP-1, IL-6, IL-10, MCP-4, CRP, IFN gamma, Granzyme A, IL-15, IL-5, Granzyme B, IL-8, IP-10, MIP-1b, PLGF, IL-16, TARC, Eotaxin-3, sICAM-1, sVCAM-1, and SAA were measured pre- and post-conditioning and on select days after administration of CAR+ T cells, as shown in FIG. 6."}, "[2]": {"system": "serum levels of cytokine analytes", "settings": "in vivo"}, "[3]": {"settings": "human, in vivo"}, "[4]": {"settings": "300 mg/m^2 cyclophosphamide, 30 mg/m^2 fludarabine, pre vs day 0"}},
  "data": [
    {"compound": "cyclophosphamide and fludarabine", "values": [
      {"measurement": "Serum concentration of CRP following conditioning", "setting": "[1]; [4]", "value": "significantly increased"},
      {"measurement": "Serum concentration of IL-5 following conditioning", "setting": "[1]; [4]", "value": "Increases"},
      {"measurement": "Serum concentration of IL-7 following conditioning", "setting": "[1]; [4]", "value": "significantly increased"},
      {"measurement": "Serum concentration of IL-10 following conditioning", "setting": "[1]; [4]", "value": "Increases"},
      {"measurement": "Serum concentration of IL-15 following conditioning", "setting": "[1]; [4]", "value": "significantly increased"},
      {"measurement": "Serum concentration of IP-10 following conditioning", "setting": "[1]; [4]", "value": "Increases"},
      {"measurement": "Serum concentration of MCP-1 following conditioning", "setting": "[1]; [4]", "value": "significantly increased"},
      {"measurement": "Serum concentration of PLGF following conditioning", "setting": "[1]; [4]", "value": "significantly increased"},
      {"measurement": "Serum concentration of s-ICAM1 following conditioning", "setting": "[1]; [4]", "value": "Increases"},
      {"measurement": "Serum perform after conditioning", "setting": "[1]; [4]", "value": "decrease"},
      {"measurement": "Markers showing changes in a majority of patients, associated with p<0.05", "setting": "[1]; FIG. 14, markers measured prior to CAR T cell infusion", "value": "7 out of 41 measured markers"},
      {"measurement": "CRP increase, average", "setting": "[2]", "value": "about 10 fold"},
      {"measurement": "CRP increase, range", "setting": "[2]", "value": "essentially no change to an increase of about 25 fold"},
      {"measurement": "CRP level in patient sera after conditioning", "setting": "[2]", "value": "increased in some patients and remained stable or decreased in others"},
      {"measurement": "Change in serum CRP", "setting": "[2]", "value": "essentially no change"},
      {"measurement": "Change in serum PLGF", "setting": "[2]", "value": "only a slight increase"},
      {"measurement": "Change in serum VEGF-D", "setting": "[2]", "value": "essentially no change"},
      {"measurement": "Change in serum sICAM-1", "setting": "[2]", "value": "essentially no change"},
      {"measurement": "Decrease of serum MIP-1β", "setting": "[2]", "value": "about 50%"},
      {"measurement": "IL-15 increase relative to baseline", "setting": "[2]", "value": "less than 10 fold"},
      {"measurement": "IL-15 increase relative to baseline, average", "setting": "[2]", "value": "about 35 fold"},
      {"measurement": "IL-15 level in patient sera after conditioning", "setting": "[2]", "value": "at least some increase"},
      {"measurement": "MCP-1 increase", "setting": "[2]", "value": "less than 4 fold"},
      {"measurement": "MCP-1 increase, average", "setting": "[2]", "value": "about 5 fold"},
      {"measurement": "MCP-1 level in patient sera after conditioning", "setting": "[2]", "value": "at least some increase"},
      {"measurement": "MIP-1 β level in patient sera after conditioning", "setting": "[2]", "value": "increased in some patients and remained stable or decreased in others"},
      {"measurement": "MIP-10 levels increase, average", "setting": "[2]", "value": "about 1.5 fold"},
      {"measurement": "MIP-10 levels increase, range", "setting": "[2]", "value": "essentially no change to an increase of about 3 fold"},
      {"measurement": "PLGF increase, average", "setting": "[2]", "value": "about 30 fold"},
      {"measurement": "PLGF increase, range", "setting": "[2]", "value": "about 2 fold or less to an increase of about over 100 fold"},
      {"measurement": "PLGF level in patient sera after conditioning", "setting": "[2]", "value": "at least some increase"},
      {"measurement": "VEGF-D increase, average", "setting": "[2]", "value": "about 3 fold"},
      {"measurement": "VEGF-D increase, range", "setting": "[2]", "value": "essentially no change to an increase of about 6 fold"},
      {"measurement": "VEGF-D level in patient sera after conditioning", "setting": "[2]", "value": "increased in some patients and remained stable or decreased in others"},
      {"measurement": "sICAM-1 increase, average", "setting": "[2]", "value": "about 3 fold"},
      {"measurement": "sICAM-1 increase, range", "setting": "[2]", "value": "essentially no change to an increase of about 4.5 fold"},
      {"measurement": "sICAM-1 level in patient sera after conditioning", "setting": "[2]", "value": "increased in some patients and remained stable or decreased in others"},
      {"measurement": "Change in serum IP-10", "setting": "[2]; ip", "value": "essentially no change"},
      {"measurement": "IP-10 increase, average", "setting": "[2]; ip", "value": "about 3.5 fold"},
      {"measurement": "IP-10 level in patient sera after conditioning", "setting": "[2]; ip", "value": "increased in some patients and remained stable or decreased in others"}
    ]},
    {"compound": "O=P1(N(CCCl)CCCl)NCCCO1", "note": "(centres unmarked) [cyclophosphamide]", "values": [
      {"measurement": "Incidence of dose limiting toxicity (DLT)", "setting": "[3]", "value": 29, "unit": "%"}
    ]}
  ]
}
